In PMC10663516 (Scientific Reports, 2023):

What was measured:
primary CLL blasts = test: Growth inhibition of primary CLL blasts (Mosaic Spot Assay); assay type: cell-based; conditions: Homo sapiens, 96 h, 4 days
From the text: A cytotoxic dose of cisplatin acted as a positive control, with no drug treatment as a negative control.

ST949B/ABC = test: DLBCL PDX model; assay type: in vivo, mouse; conditions: 9 days, QD PO, TL-895 and ibrutinib 25 mg/kg, acalabrutinib 30 mg/kg
Description: (§1) All three compounds were formulated in a solution of 20% kleptose (hydroxypropyl β-cyclodextrin) in 50 mM citrate and administered QD PO during the treatment periods given for each model.
For mean values > 0: %ΔT/ΔC=endtumorvolumetreatment-starttumorvolumetreatment/endtumorvolumecontrol-starttumorvolumecontrol×100
For mean values ≤ 0 (i.e. regression): %ΔT/ΔC=endtumorvolumetreatment-starttumorvolumetreatment/starttumorvolumecontrol×100
(§2) The research use of patient material in PDX models at Crown Bioscience, XenoSTART and EPO-GmbH was approved by the local Institutional Ethical Review Boards and the patients provided written informed consent. Molecular analysis was performed on samples from each model using the EdgeSeq DLBCL Cell of Origin Assay (HTG Molecular Diagnostics, Tucson, AZ, USA) to confirm ABC-GCB DLBCL subtype.
Stock mice inoculated with human DLBCL cancer tissues were euthanized by progressive hypoxemia with CO2 and tumors were harvested. Tumor fragments were used at three different contract research organizations for xenotransplantation into different mouse strains for the following models: (1) 6-week-old female nude (NMRI:nu/nu) or CB17-SCID mice (Javier Labs, France): Ly12638, Ly11212, and Ly13005 (Experimental Pharmacology and Oncology Berlin-Buch GmbH [EPO-GmbH], Germany); (2) 6–8-week-old female BALB/c nude or NOD SCID mice (Beijing HFK Bioscience Co., Ltd. Beijing, China): LY0257, LY2214, LY3604, LY2298, LY2264, LY2318, and LY2345 (Crown Bioscience Inc, Taicang, China); and (3) 6–12-week-old female CB-17 SCID mice (CB17/Icr-Prkdc^scid/IcrIcoCrl Charles River Laboratories, Wilmington, MA, USA): ST118B, ST949B, ST359, ST949, ST2761B, ST2963, ST1361, ST2078, ST1735B, ST2902, and ST3497 (XenoSTART, San Antonio, TX, USA).
(§3) When the average tumor volume was within a pre-determined range (100–300 mm^3), mice were assigned to treatment groups to balance the mean starting tumor volumes (n = 5 for all models except LY13005, which was n = 3). […] Tumor volumes were recorded 2–3 times per week. Mean %∆T/∆C was calculated at the end of treatment as described above for MCL models.
(§4) Tumor volume was used as the measure of efficacy for statistical analyses of in vivo xenograft studies. Tumor volume data from individual studies were log-transformed and statistically analyzed using repeated measures analysis of covariance (RM-ANCOVA) to determine significant treatment effects, followed by post hoc Tukey’s test for multiple pairwise comparisons (all α = 0.05) using R software. Day 0 data were used only as covariates in the analyses because tumor measurements on that day were recorded before the first treatments were administered.

[1] = cited from earlier work
DLBCL PDX models = test: 21 DLBCL PDX models, overall tumor response; assay type: in vivo, mouse
Description: as §2
Stock mice inoculated with human DLBCL cancer tissues were euthanized by progressive hypoxemia with CO2 and tumors were harvested. […]
as §3
as §4, with “administered. […]” for “administered.”

Daudi cells = test: Rituximab-induced ADCC, NK cell-driven lysis (Calcein-AM release); assay type: cell-based, human; conditions: 3 µg/mL rituximab, primary NK cells, 4 h; TL-895 0.1–10 µM, ibrutinib and acalabrutinib 0.3–30 µM
From the text: ADCC analysis was based on quantitation of Calcein-AM release by […] detection on a FLUOstar® Omega (BMG LABTECH).

Mino = test: Cell line-derived xenograft model of MCL; conditions: SCID mice, 25 mg/kg QD PO, 27 days
Jeko-1 = test: Cell line-derived xenograft model of MCL; assay type: in vivo, mouse; conditions: Jeko-1 xenograft, nude mice, 25 mg/kg QD PO, 20 days
Description: All three compounds were formulated in a solution of 20% kleptose (hydroxypropyl β-cyclodextrin) in 50 mM citrate and administered QD PO during the treatment periods given for each model. […] Studies in the Jeko-1 mouse MCL model were performed at EMD Serono Research and Development Institute, Billerica, MA, USA. Six-to-eight-week old female nude mice (Crl:NU-Foxn1nu; Charles River Laboratories, Wilmington) were inoculated with Jeko-1 cells (obtained from ATCC) by s.c. injection (10 × 10^6 cells in 0.2 mL phosphate buffered saline with Matrigel). […] Tumor volumes were recorded twice weekly. Mean %∆T/∆C was calculated at the end of treatment as outlined above. Tumor volume was used as the measure of efficacy for statistical analyses of in vivo xenograft studies. Tumor volume data from individual studies were log-transformed and statistically analyzed using repeated measures analysis of covariance (RM-ANCOVA) to determine significant treatment effects, followed by post hoc Tukey’s test for multiple pairwise comparisons (all α = 0.05) using R software. Day 0 data were used only as covariates in the analyses because tumor measurements on that day were recorded before the first treatments were administered.

Granta519 = test: Cell line-derived xenograft model of MCL; assay type: in vivo, mouse; conditions: SCID mice, 25 mg/kg QD PO, 14 days
Description: as §1
(§5) Maver-1, Granta519, and Mino mouse MCL studies were performed at Shanghai ChemPartner Co., Ltd, Shanghai, China. Five-to-six-week old female severe combined immune deficiency (SCID) mice (Vital River Lab Animal Technology Co., Ltd, Beijing, China) were inoculated with Maver-1, Granta519, or Mino cells (all obtained from ATCC) by subcutaneous (s.c.) injection (0.2 mL containing 5 × 10^7 cells/mL in a 1:1 suspension of medium:Matrigel).
(§6) […]. Tumor volumes were recorded three times per week. Tumor growth inhibition was expressed as the mean percentage treatment (T)/control (C) ratio [%∆T/∆C] and was calculated at the end of treatment.
as §4

Maver-1 = test: Cell line-derived xenograft model of MCL; assay type: in vivo, mouse; conditions: Maver-1 xenograft, SCID mice, 25 mg/kg QD PO, 14 days
Description: as §1, §5, §6, §4

B-cell malignancies = conditions: cited from earlier work
HepG2 cells = test: Cytotoxicity by ATP content (CellTiter-Glo); assay type: cell-based, human; conditions: HepG2 EC50 at 24 and 72 h
Description: HepG2 cells (human hepatocellular carcinoma [epithelial]) and primary human hepatocytes were cultured in DMEM/F-12 medium supplemented with antibiotics, sodium pyruvate, insulin and 10% fetal calf serum. During the testing steps, the medium was replaced by serum-free media containing bovine serum albumin (BSA) and dexamethasone. All the cultures are incubated at 37 °C in a humidified chamber containing 5% CO2. […] HepG2 and primary hepatocytes were cultured in 96-well tissue culture plates either for luminescence (2E4/well in 100 µL) or pre-coated with collagen I (3.5E4/well in 100 µL, respectively).
For the cytotoxicity data, the % values relative (%RV) to the vehicle controls were calculated for each dose level. […] The overall EC50s were the averages of the values obtained from each experiment (PRISM® GraphPad™ Software, Boston, MA).

SMILES | inhibition at 0.008 µM (primary CLL blasts) [%] | inhibition at 0.04 µM (primary CLL blasts) [%] | inhibition at 0.2 µM (primary CLL blasts) [%] | inhibition at 1 µM (primary CLL blasts) [%] | inhibition at 5 µM (primary CLL blasts) [%] | inhibition at 25 µM (primary CLL blasts) [%] | IC50 (primary CLL blasts) [nM] | %ΔT/ΔC (ST949B/ABC) [%] | Tumor response rate (models with P < 0.05 versus vehicle) (DLBCL PDX models) [%] | Inhibition of the ADCC mechanism of rituximab (Daudi cells) | Tumor growth vs vehicle (Mino) | Tumor growth vs vehicle (Jeko-1) | Tumor growth vs vehicle (Granta519) | Tumor growth vs vehicle (Maver-1) | also measured
CC#CC(=O)N1CCC[C@H]1c1nc(-c2ccc(C(=O)Nc3ccccn3)cc2)c2c(N)nccn12 [Acalabrutinib] | 34 | 40 | 47 | 56 | 64 | 80 | ~200 | 103 | 24 | neither TL-895 (0.1–10 µM) nor acalabrutinib (0.3–30 µM) inhibited the ADCC mechanism of rituximab at the lower, more clinically relevant, concentrations |  |  |  |  | Exposure ([1]; MCL, acalabrutinib oral 100 mg BID): 1111 ng·h/mL
C=CC(=O)N1CCC[C@@H](n2nc(-c3ccc(Oc4ccccc4)cc3)c3c(N)ncnc32)C1 [Ibrutinib] |  |  |  |  |  |  |  |  | 10 | ADCC was inhibited by ibrutinib (0.3–30 µM) in a concentration-dependent manner | Significant treatment effects were observed for TL-895 and ibrutinib versus vehicle | Neither TL-895 nor ibrutinib had any significant effects on tumor growth | Neither TL-895 nor ibrutinib had any significant effects on tumor growth | Neither TL-895 nor ibrutinib had any significant effects on tumor growth | Area under the curve (AUC) ([1]; patients with MCL, ibrutinib 560 mg QD): 956 ng·h/mL
C=CC(=O)N1CCC(F)(CNc2ncnc(N)c2-c2ccc(Oc3ccccc3)cc2)CC1 [TL-895] | 43 | 50 | 53 | 61 | 72 | 90 | ~200 | 39 | 24 | neither TL-895 (0.1–10 µM) nor acalabrutinib (0.3–30 µM) inhibited the ADCC mechanism of rituximab at the lower, more clinically relevant, concentrations | significantly inhibited tumor growth | Neither TL-895 nor ibrutinib had any significant effects on tumor growth | Neither TL-895 nor ibrutinib had any significant effects on tumor growth | Neither TL-895 nor ibrutinib had any significant effects on tumor growth | Dose-limiting toxicities (B-cell malignancies; doses up to 900 mg/day): no dose-limiting toxicities were reported; Maximum tolerated dose (B-cell malignancies; doses up to 900 mg/day): not reached; Patients with best response of PR or higher (B-cell malignancies; monotherapy): Half of patients; Patients with treatment-related grade 3–4 adverse events (B-cell malignancies; three patients): 17%; Cytotoxicity EC50 in HepG2 cells relative to IC50s in sensitive MCL and DLBCL cell lines (HepG2 cells): 5–5000 fold
